Broadly, the ED50 is the dose that gives a 50% effect, or the effect in half of the subjects. What is called EC50 is the concentration that produces a half-maximal response. A word on the EC90: it is the concentration at which the effect reaches the 90% level. A word on the logP: it is a log measure of how a compound divides between an organic and an aqueous phase. For orientation: IC90 means the concentration at which the effect reaches the 90% level. What is called IC99 is the concentration at which the effect reaches the 99% level.

Activity calls are given as the source filed them. No cut-off for these calls is given here.

The test system of data set [1] is Plasmodium berghei. Briefly: Antimalarial activity against Plasmodium berghei infected in mouse assessed as reduction in parasitemia. The data set is classed as functional.
The subject of data set [2] is Plasmodium falciparum. The data set is described as follows: Antiplasmodial activity against Plasmodium falciparum. In kind it is functional, organism-based.
Data set [3] is described as follows: Lipophilicity, logP of compound. In kind it is physicochemical. The note with it: octanol/water.
The subject of another data set is Plasmodium yoelii. The data set is described as follows: Antimalarial activity against Plasmodium yoelii infected in mouse assessed as reduction in parasitemia. In kind it is functional.
Data set [4] has as its system Plasmodium falciparum. Briefly: Antiplasmodial activity against Plasmodium falciparum D6. The data set is classed as functional, organism-based.
Data set [5] deals with Plasmodium falciparum. Briefly: Antiplasmodial activity against Plasmodium falciparum W2. In kind it is functional, organism-based.
Data set [6] deals with Plasmodium falciparum. The data set is described as follows: Selectivity ratio of IC50 for antiplasmodial activity against Plasmodium falciparum W2 to IC50 for antiplasmodial activity against Plasmodium falciparum D6. The data set is classed as functional.
Data set [7] deals with Plasmodium berghei. The data set is described as follows: Antimalarial activity against Plasmodium berghei KBG 173 infected in ICR mouse assessed as survival time at 20 mg/kg/day, po qd administered 3 to 5 days post infection. In kind it is functional. The settings on record: time 3-5 day.
In data set [8] the test system is Plasmodium berghei. Briefly: Antimalarial activity against Plasmodium berghei KBG 173 infected in ICR mouse assessed as animal survival at 80 mg/kg/day, po qd administered 3 to 5 days post infection. In kind it is functional, organism-based. The settings on record: time 3-5 day.
Data set [9] relates to Plasmodium berghei. Briefly: Antimalarial activity against Plasmodium berghei KBG 173 infected in ICR mouse assessed as survival time at 80 mg/kg/day, po qd administered 3 to 5 days post infection. The data set is classed as functional. The settings on record: time 3-5 day.
Data set [10] has as its system Plasmodium berghei. The data set is described as follows: Antimalarial activity against Plasmodium berghei KBG 173 infected in ICR mouse assessed as survival time at 320 mg/kg/day, po qd administered 3 to 5 days post infection. The data set is classed as functional. The note with it: time 3-5 day.
The subject of data set [11] is Plasmodium berghei. Briefly: Antimalarial activity against Plasmodium berghei KBG 173 infected in ICR mouse assessed as animal survival at 320 mg/kg/day, po qd administered 3 to 5 days post infection. The data set is classed as functional, organism-based. The settings on record: time 3-5 day.
For data set [12], the system named is Plasmodium berghei. Briefly: Antimalarial activity against Plasmodium berghei KBG 173 infected in ICR mouse assessed as animal survival at 20 mg/kg/day, po qd administered 3 to 5 days post infection. The data set is classed as functional, organism-based. The settings on record: time 3-5 day.
For data set [13], the system named is Plasmodium falciparum. The data set is described as follows: Antiplasmodial activity against Plasmodium falciparum TM91C235. The data set is classed as functional, organism-based.
The test system of the next data set is Plasmodium vinckei. The data set is described as follows: Antimalarial activity against chloroquine resistant Plasmodium vinckei infected in po dosed swiss mouse assessed as reduction in parasitemia. In kind it is functional.
In the next data set the test system is HeLa. Briefly: Antiproliferative activity against human HeLa cells assessed as cell growth inhibition. In kind it is functional, cell-based. The note with it: Homo sapiens, HeLa.
The test system of data set [14] is Plasmodium falciparum. Briefly: Antimalarial activity against erythrocytic stage chloroquine sensitive Plasmodium falciparum 3D7 infected in mouse assessed as reduction in parasitemia at 43 mg/kg/day, po qd measured after 4 days by Giemsa staining based analysis relative to control. The settings on record: time 4 day. More on the design: scale not given: the % may be the effect or the level left. The data set is classed as functional.

Data set [15] concerns Plasmodium yoelii nigeriensis. Briefly: Antiplasmodial activity against Plasmodium yoelii nigeriensis infected in sc dosed mouse assessed as reduction in parasitemia. In kind it is functional.
Data set [16] relates to Plasmodium falciparum. The data set is described as follows: Antimalarial activity against erythrocytic stage chloroquine sensitive Plasmodium falciparum W2 infected in mouse assessed as reduction in parasitemia at 43 mg/kg/day, po qd measured after 4 days by Giemsa staining based analysis relative to control. The data set is classed as functional. More on the design: scale not given: the % may be the effect or the level left. The note with it: time 4 day.

The test system of data set [17] is Plasmodium vinckei petteri. The data set is described as follows: Antimalarial activity against chloroquine sensitive Plasmodium vinckei petteri infected in po dosed swiss mouse assessed as reduction in parasitemia. In kind it is functional.
The subject of a further data set is Hemozoin. The data set is described as follows: Inhibition of Beta-hematin in Plasmodium falciparum.
The test system of data set [18] is Plasmodium falciparum. The data set is described as follows: Antimalarial activity against erythrocytic stage chloroquine sensitive Plasmodium falciparum 3D7 infected in mouse assessed as reduction in parasitemia at 15 mg/kg/day, po qd measured after 4 days by Giemsa staining based analysis relative to control. The data set is classed as functional. Also noted: scale not given: the % may be the effect or the level left. The note with it: time 4 day.

Data set [19] deals with Plasmodium falciparum. The data set is described as follows: Antiplasmodial activity against chloroquine resistant Plasmodium falciparum by HRP2 ELISA analysis. In kind it is functional, organism-based. In general terms: In an ELISA, binding on a coated surface is turned into a signal by an enzyme label.
Data set [20] concerns Plasmodium berghei. The data set is described as follows: Antiplasmodial activity against Plasmodium berghei infected in mouse assessed as reduction in parasitemia at 6.8 mg/kg in presence of mefloquine relative to control. Also noted: scale not given: the % may be the effect or the level left. The data set is classed as functional.
Data set [21] relates to Plasmodium berghei. The data set is described as follows: Antiplasmodial activity against Plasmodium berghei infected in mouse assessed as reduction in parasitemia at 13 mg/kg in presence of mefloquine relative to control. The data set is classed as functional. More on the design: scale not given: the % may be the effect or the level left.
In data set [22] the test system is Plasmodium berghei. The data set is described as follows: Antiplasmodial activity against Plasmodium berghei N infected in po dosed mouse assessed as reduction in parasitemia. In kind it is functional.
Data set [23] deals with Plasmodium berghei. Briefly: Antiplasmodial activity against Plasmodium berghei N infected in sc dosed mouse assessed as reduction in parasitemia. The data set is classed as functional.
Data set [24] relates to Plasmodium falciparum. The data set is described as follows: Antiplasmodial activity against Plasmodium falciparum NF54. The data set is classed as functional, organism-based.

For `C[C@@H]1CC[C@H]2[C@@H](C)C(N3CCS(=O)(=O)CC3)O[C@@H]3O[C@]4(C)CC[C@@H]1[C@]32OO4` (some centres not stated), the ED50 in the data set with Plasmodium berghei [1] was 1.5 mg/kg. Besides, in the data set on Plasmodium falciparum [2], the concentration giving a half-maximal response (EC50) amounted to 0.14 nM and the EC90 stood at 2.55 nM. This compound also gave a logP in data set [3] of 2.49. Moreover, the ED50 with Plasmodium yoelii was determined as 3.9 mg/kg.
As to `Cc1cccc(C)c1Nc1nc(OCc2cn(CCCNc3ccnc4cc(Cl)ccc34)nn2)nc(N(C)C)n1`, the values for the IC50 in the data set on Plasmodium falciparum [4] and with Plasmodium falciparum [5] were 580 nM and 730 nM, respectively. In addition, the “Ratio IC50” value in the data set on Plasmodium falciparum [6] is >11.1.
For the compound `Cc1cccc(C)c1Nc1nc(OCc2cn(CCNc3ccnc4cc(Cl)ccc34)nn2)nc(N(C)C)n1`, the IC50 stood at 980 nM in the data set with Plasmodium falciparum [4] and 1690 nM in the data set on Plasmodium falciparum [5]. In the data set with Plasmodium falciparum [6], the “Ratio IC50” value was >5.6.
Consider `Clc1ccc2c(NCCNCC3CCC4(CC3)OOC3(CCCCC3)OO4)ccnc2c1`, for which the Time in the data set with Plasmodium berghei [7] is 15.8 days; in the data set with Plasmodium berghei [9] it was 26.4 days; in the data set with Plasmodium berghei [10], >31 days. Also, the outcome in the data set with Plasmodium berghei [8] and in the data set with Plasmodium berghei [11] was Active. In addition, in the data set on Plasmodium berghei [12], the result was inactive.
On to `CCN(CC)CCCC(C)Nc1ccnc2cc(Cl)ccc12` (configuration not stated) [CHLOROQUINE], for which the IC90 is 153 nM in the data set with Plasmodium falciparum [13], 18.6 nM in the data set on Plasmodium falciparum [5] and 301 nM in the data set on Plasmodium falciparum [19]. The ED100 was >100 mg/kg/day in the data set with Plasmodium vinckei and 16 mg/kg/day in [17]. Further, the IC50 in the data set on HeLa was found to be 8540 nM; with Hemozoin, 1.91 equiv. Besides, the Activity with Plasmodium falciparum [14] is 100%; in the data set on Plasmodium falciparum [16], 15%; with Plasmodium falciparum [18], 100%. In addition, the CD50 in data set [15] was found to be 7 mg/kg/day. The CD90 in [15] is on record as 23 mg/kg/day. For the same compound, the ED50 in data set [15] (Plasmodium yoelii) was 5 mg/kg/day. Further, the ED90 in data set [15] (Plasmodium yoelii) came out at 23 mg/kg/day. The compound also yielded an IC99 in the data set with Plasmodium falciparum [19] of 0.531 µM.
Regarding `C[C@@H]1CC[C@H]2[C@@H](C)C(CCC(=O)Nc3ccc(F)cc3)O[C@@H]3O[C@]4(C)CC[C@@H]1[C@]32OO4` (some centres not stated), the results for the Activity with Plasmodium berghei [20] and in the data set with Plasmodium berghei [21] were 99% and 99.6%, respectively.
As to `Cc1ccc(C2O[C@@H]3O[C@]4(C)CC[C@H]5[C@H](C)CC[C@@H]([C@H]2C)[C@@]35OO4)o1` (some centres not stated), the ED50 with Plasmodium berghei [22] worked out at 15.5 mg/kg; in the data set with Plasmodium berghei [23], 0.9 mg/kg. In the data set with Plasmodium falciparum [24], this compound had an IC50 of 5.2 nM.

The values are drawn from ChEMBL document CHEMBL5241075, “Advancement of chimeric hybrid drugs to cure malaria infection: An overview with special emphasis on endoperoxide pharmacophores” (Eur J Med Chem, 2021).
